Experimental data reported in a melting point compilation (Tetko et al.; mined from patent text by program, amines drawn as free bases though some values may be those of a salt).

SMILES	melting point [°C]
CN1CCN(C(=O)OC2c3ccccc3C(=O)N2c2ccc3cnccc3n2)CC1 (centres undefined)	215
O=C1C=CC(O)(c2cccs2)C=C1	103
CCCC(=O)c1noc2ccccc12	33 to 35
O=C1c2sc3ccccc3c2C(=O)c2sc3ccccc3c21	315
N#CC(CCc1ccc(Cl)cc1)(c1ccccc1)c1cccnc1 (centres undefined)	83 to 84
O=S(=O)(Nc1cc(Br)c(O)c2ccccc12)c1cccs1	128 to 130
CCCCc1ccc(C(=O)NCCN(C(C)=O)[C@@H](CCC(N)=O)C(=O)O)nc1	156 to 158
COc1cnn(-c2ccc(C)cc2)n1	65 to 67
O=C1c2ccccc2C(=O)N1CC(=O)N1c2ccccc2N(Cc2ccccn2)C(=O)[C@H]2CCC[C@H]21 (relative stereo)	227 to 229
COC(=O)c1ccc(CNC(=O)OCc2ccccc2)cc1O	91 to 92
CS(=O)(=O)c1ccc(-c2ccc(Br)n2-c2ccc(F)cc2)cc1	174 to 176
Cc1ncsc1C(C)(O)c1cc2ccccc2o1 (centres undefined)	139 to 140
O=C(O)COc1c2c3c(ccnc3c3ccccc13)CCC2	228
CON(C(=O)c1cn(C)nc1C(F)F)C(C)C1CC1c1ccc(Cl)cc1Cl (centres undefined)	133 to 135
O=C(CI)OCc1ccc([N+](=O)[O-])cc1	62.5 to 63.5
c1coc(-c2cc3[nH]ccn3n2)c1	186 to 188
O=C(CCCCCc1ccc(Cl)cc1)N1CCN(c2cnccn2)CC1	88 to 89
Nc1nc(-c2ccc(NC(=O)CN(Cc3ccccc3)C(=O)C3CCCCC3)cc2)cs1	214 to 216
O=C(O)CCCCCCCc1cncc2ccccc12	99 to 100
CCCCCCC(=O)c1ccc(O)c(Cl)c1Cl	82 to 84
COc1ccccc1CNC(=O)C1N(C(=O)C(O)C(Cc2ccccc2)NC(=O)c2cccc(O)c2C)CSC1(C)C (centres undefined)	123 to 125
CC(=O)Oc1ccc(CI)cc1C(OC(C)=O)OC(C)=O	117 to 120
CCCCCCN1CCN(Cc2ccc(NC(=S)Nc3ccccc3N)cc2)C(=O)C1=O	160
COc1ccc(CN2Cc3cncn3C(c3ccc(-c4ccc(Cl)cc4)cc3)C2=O)cc1 (centres undefined)	270 to 273
Cc1ccnc(C(=O)c2[nH]c3ccc(Cl)cc3c2CC(=O)O)c1	230 to 231

SMILES	melting point [°C]
ClCCCc1nnnn1C1CCCCC1	82 to 85
OCc1cnoc1-c1ccc2c(c1)OCO2	92 to 93
Nc1c2c(=O)c3ccccc3c(=O)c2c(N)c2c(=O)n(CCCO)c(=O)c12	261 to 262
O=C(O)Cc1nn(CC(=O)Nc2cc(C(F)(F)F)ccc2Br)c(=O)c2ccccc12	200 to 202
CCOC(=O)c1cn(C2CC2)c2nc(N3CCC(NC(C)=O)C3)c(F)cc2c1=O (centres undefined)	246 to 248
CNC(=S)NS(=O)(=O)c1cc(CCNC(=O)c2cc(Cl)ccc2OC)ccc1OCCOC	134
COc1ccc(-c2ncc(C(=O)O)s2)cc1OC1CCCC1	170 to 171
O[C@]1(c2ccccc2)CCS[C@H]2CN(Cc3ccccc3)C[C@H]21 (racemic)	137
O=S(=O)(Nc1ccc(Oc2cccc3cccnc23)cc1)c1ccc(Cl)cc1	220
CC(=O)Oc1ccc2c(=O)c(C#N)c(C)oc2c1	140 to 141
CC(C)(C)OC(=O)Nc1ccncc1C(=O)O	260
O=Cc1cccn1-c1ccccc1[N+](=O)[O-]	119 to 122
Nc1cc2c3c(cc(N)cc3c1)C(=O)N(O)C2=O	329 to 336
CCOC(=O)c1cccc([N+](=O)[O-])c1NCc1ccc(-c2ccccc2C#N)cc1	119 to 120
C(=C\c1ccoc1)/c1ccccc1	96
CC1(C)CCOc2ccc(C(=O)c3ccc(C(=O)O)cc3)cc21	199
Cn1c(COc2ccc(CC3SC(=O)NC3=O)cc2)nc2cc(Cl)cnc21 (centres undefined)	203 to 205
COc1cc2ncc(C#N)c(Nc3ccc4[nH]c(=O)sc4c3)c2cc1OC	285 to 287
CC1(C)C(c2ccc(S(C)(=O)=O)cc2)=C(c2ccccc2)C1F (centres undefined)	79 to 81.5
CC(=O)N1CCN(C(=O)c2nc(-c3ccccc3)c(-c3ccc(=O)n(C(C)C)n3)s2)CC1	78 to 82
Cc1ccc(S(=O)(=O)NC(=O)C(Cl)Cc2cc(-n3nc(C)n(C(F)F)c3=O)c(F)cc2Cl)cc1 (centres undefined)	267 to 269
CCCOC(=O)Cc1cc(O)c(C)cc1O	101
CCc1nnc2c(Cl)nc3ccc(Cl)cc3n12	> 250
COc1ccc(C(=O)c2c(Cc3ccccc3)oc3ccccc23)cc1	84 to 85
CC(C)(CO)CCCCC(CCCCC(C)(C)CO)C(C)(C)O	72 to 74

SMILES	melting point [°C]
S=C(NCc1ccccc1Cl)N1CCc2c([nH]c3ccccc23)C1c1ccc2c(c1)OCO2 (centres undefined)	123 to 128
N#Cc1c2c(c3c(c1N1CCCCC1)Cc1ccccc1-3)Cc1ccccc1-2	186 to 188
CSc1nc(N)nc(-c2ccc([N+](=O)[O-])o2)n1	179 to 181
Fc1ccc(-c2cn([C@H]3CN4CCC3CC4)nn2)cc1	139
CC(C)(CO)NS(=O)(=O)c1cccc(NC(=O)c2cnn3c(C(F)F)cc(-c4ccc(C(F)(F)F)cc4)nc23)c1	232
CS(=O)(=O)N[C@H]1C[C@H](C(=O)O)Nc2cc(Cl)cc(Cl)c21 (relative stereo)	194 to 195
COc1ccc(Cn2nc(-n3cnn(Cc4ccc(F)cc4)c3=O)cc2C(=O)NCc2ccc(F)c(F)c2)cc1	156 to 158
CN(C)Cc1ccc(OCC(=O)N2CCN(c3ccc(N4C[C@H](CNC(=S)C5CC5)OC4=O)cc3F)CC2)cc1	169 to 170
CCCCN(C(C)=O)c1cccc(-c2ccnc3c(C#N)cnn23)c1	146 to 148
COc1cc2cnnc(Cl)c2cc1OC	195 to 197
O=C1c2ccccc2C(=O)N1CC(=C(F)F)c1ccccc1	102 to 103
O=C(O)CCc1nc2c(F)c(F)cc(F)c2s1	123 to 125
CC1CC(=O)NN=C1c1ccc(N2CCNCC2)c(F)c1 (centres undefined)	172 to 174
CC(C)[Si](OC[C@H]1C(C=O)=Cc2cc3c(cc2[C@@H]1O)OCO3)(C(C)C)C(C)C	87 to 89
N#Cc1ccc2c(c1)NC(=O)C2c1ncnc2nn(C3CCCC3)cc12 (centres undefined)	340 to 344
Cc1cc(-c2ccc(C(F)(F)F)cc2)cn2c(-c3nc(-c4cccc(S(N)(=O)=O)c4)no3)cnc12	326
COCNC(=O)NC1CCC(=O)c2sccc21 (centres undefined)	155 to 158
CCCc1c(OCCCCCCc2ccc3cc(O)c(O)cc3c2)ccc(C(=O)O)c1O	154 to 158
N#Cc1c(N2CC[C@@H](C3(N)CC3)C2)ccc2c(=O)c(C(=O)O)cn([C@@H]3C[C@@H]3F)c12	138 to 140
CCCN(C1CCC(c2c[nH]c3ccc(F)cc23)CC1)C1COc2cccc(OC)c2C1 (centres undefined)	148
CC(C)(C)OC(=O)N1CCN(c2ccc(OCC3(C)Cn4cc([N+](=O)[O-])nc4O3)cc2)CC1 (centres undefined)	212 to 214
C=CCOc1ccc(-c2ccc(Cl)nn2)c(OCC(O)CNC(C)(C)C)c1 (centres undefined)	93 to 94
O=c1c2ccc(Cl)cc2[nH]c2c(O)nn(Cc3cc4ccccc4s3)c(=O)c12	> 300
O=Cc1cc2c3ccccc3oc2c2ccccc12	123 to 125
C1CNCCNCCCNCCNCCNC1	49 to 51

SMILES	melting point [°C]
O=C(Nc1cccc2c1ncc1c(=O)n3ccnc3sc12)c1c(Cl)cccc1Cl	> 250
Cc1cc(C(=O)NCc2ccc(Br)cc2F)c(OCC(=O)O)cc1F	169
O=C(O)Cc1c(C(=O)c2ccc(Cl)cc2)[nH]c2cc(Cl)c(F)cc12	215 to 220
N#CC(C(=O)Nc1ccc(S(=O)C(F)(F)F)cc1)=C(O)C1CC1 (centres undefined)	155 to 157
CC1COc2cc(-c3ccco3)ccc2C1=NO (centres undefined)	175 to 177
CC1CC(=O)NN=C1c1ccc(NC(=O)CCBr)cc1 (centres undefined)	215 to 217
CN1CCN(c2cccc3c2C[C@H](NC(=O)c2ccc(C#N)cc2)CC3)CC1	184 to 186
Cn1cc(-c2c(-c3ccccc3F)nn3ccncc23)ccc1=O	193 to 194
CCCOc1ccc(S(=O)(=O)N2CCN(CC(=O)OCC)CC2)cc1-c1nc2cc3nc[nH]c3cc2c(=O)[nH]1	188 to 192
Nc1nc(SC2C=CCCC2)c2ncn(C3C=CC(CO)C3)c2n1 (centres undefined)	138 to 140
CCOC(=O)CCCOc1ccc(C(=O)Nc2ccccc2Oc2ccccc2-c2nnn[nH]2)cc1	162 to 164
O=C(OCC(Cl)(Cl)Cl)N1CCC(C2c3cccc4c3N(CC4)c3ccccc3N2C(=O)OCC(Cl)(Cl)Cl)CC1 (centres undefined)	202 to 205
O=C1c2ccccc2C(=O)N1CC1CC(=O)N(Cc2ccccc2)c2ccccc2N1 (centres undefined)	127 to 130
N#Cc1c(CNS(=O)(=O)c2c(F)cccc2F)nn(-c2ccc(Cl)cc2Cl)c1-c1ccc(O)cc1	196
Cc1cc(Cn2cccn2)cc2c1Cc1c(-c3ccsc3)n[nH]c1-2	271 to 274
COc1cc(C)c2c(c1O)CC(C)(c1ccccc1)C2=O (centres undefined)	136 to 139
O=C1Cc2cc(NC(=O)C(=O)N3CCC(COc4ccccc4)CC3)ccc2N1	200 to 202
OC[C@@H](O)[C@@H](CO)OCc1ccccc1Cl	74 to 76
CCOC1(CCC(=O)O)c2cc(C)c(OC(C)=O)cc2Oc2cc(OC(C)=O)c(C)cc21	143
N#CC(=Cc1ccc(Cl)cc1)c1c(Cl)cc(N2N=CCNC2=O)cc1Cl	83 to 85
C=CCC(O)CCCCCCCCCOc1ccccc1 (centres undefined)	50 to 52
O=C(NCc1ccc(Cl)cc1)c1cnc2sc(C#CCO)cc2c1O	233 to 236
COc1cc(OC(C)(C)C(=O)O)c(C=CC(=O)c2ccc(C(=O)O)cc2)cc1-c1cccs1	223 to 225
COc1cc(Nc2nc3c(s2)CCCC3c2ccccc2)ccc1-c1nc(C)no1 (centres undefined)	228 to 231
